Test results taken from ChEMBL document CHEMBL1201862, “PubChem BioAssay data set” (2004).
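96-well plates; 48 h exposure; 5 concentrations. Endpoints by linear interpolation between flanking doses. Not reached: highest tested concentration assigned. GI50 marks 50% less growth.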 The source made the active and inactive calls. Rule as the data show it: active = GI50 up to about 1.1 µM and inactive = higher.

What was measured:
Assay in all cases: growth of human tumour cells (NCI), 48 h
COLO 205 = system: COLO 205
SW-620 = system: SW-620
HL-60 = system: HL-60
IGROV-1 = system: IGROV-1
UACC-62 = system: UACC-62
NCI-H23 = system: NCI-H23
NCI-H226 = system: NCI-H226
DU-145 = system: DU-145
SF-539 = system: SF-539
UO-31 = system: UO-31
EKVX = system: EKVX
Malme-3M = system: Malme-3M
SNB-75 = system: SNB-75
M14 = system: M14
RPMI-8226 = system: RPMI-8226
SK-MEL-5 = system: SK-MEL-5
SK-MEL-28 = system: SK-MEL-28
OVCAR-8 = system: OVCAR-8
U-251 = system: U-251
SR = system: SR

Measured: GI50

CC(=O)NNc1nc(C)c(C(/C=C/c2ccccc2O)=N/NC(=O)c2ccncc2)s1
inactive: COLO 205 > 100 µM | SW-620 > 100 µM | HL-60 > 100 µM | IGROV-1 > 100 µM | UACC-62 > 100 µM | NCI-H23 > 100 µM | NCI-H226 > 100 µM | DU-145 > 100 µM | SF-539 > 100 µM | UO-31 > 100 µM | EKVX > 100 µM | Malme-3M > 100 µM | SNB-75 > 100 µM | M14 > 100 µM | RPMI-8226 > 100 µM | SK-MEL-5 > 100 µM | SK-MEL-28 > 100 µM | OVCAR-8 > 100 µM | U-251 > 100 µM | SR > 100 µM

CCOC(=O)C(NC(=O)CC(C)C)(Nc1ccc(S(=O)(=O)Nc2nc(C)cc(C)n2)cc1)C(F)(F)F (stereo not given)
inactive: COLO 205 > 100 µM | SW-620 > 100 µM | HL-60 > 100 µM | IGROV-1 > 100 µM | UACC-62 > 100 µM | NCI-H23 > 100 µM | NCI-H226 > 100 µM | DU-145 > 100 µM | SF-539 > 100 µM | UO-31 > 100 µM | EKVX > 100 µM | Malme-3M > 100 µM | SNB-75 89.9 µM | M14 > 100 µM | RPMI-8226 > 100 µM | SK-MEL-5 > 100 µM | SK-MEL-28 > 100 µM | OVCAR-8 > 100 µM | U-251 > 100 µM | SR > 100 µM

C=CCN1C(=O)/C(=C/c2ccc(Cl)cc2)N=C1SC/C=C/C
inactive: COLO 205 32.1 µM | SW-620 31.8 µM | HL-60 21.7 µM | IGROV-1 65.5 µM | UACC-62 42.3 µM | NCI-H23 32.1 µM | NCI-H226 > 100 µM | DU-145 60.8 µM | SF-539 > 100 µM | UO-31 34.7 µM | EKVX 26.4 µM | Malme-3M 33.7 µM | SNB-75 75.7 µM | M14 31 µM | RPMI-8226 17.3 µM | SK-MEL-5 24.4 µM | SK-MEL-28 53.2 µM | OVCAR-8 29.5 µM | U-251 27.4 µM | SR 17.5 µM

O=C(CCCN1CCC2(CC1)NC(=O)c1ccccc1O2)c1ccc(F)cc1
inactive: COLO 205 50.1 µM | SW-620 > 100 µM | HL-60 85.3 µM | IGROV-1 > 100 µM | UACC-62 > 100 µM | NCI-H23 > 100 µM | NCI-H226 > 100 µM | DU-145 > 100 µM | SF-539 > 100 µM | UO-31 73.5 µM | EKVX > 100 µM | Malme-3M 70.6 µM | SNB-75 > 100 µM | M14 87.7 µM | RPMI-8226 76.6 µM | SK-MEL-5 44.9 µM | SK-MEL-28 > 100 µM | OVCAR-8 > 100 µM | U-251 > 100 µM | SR 57 µM

Cn1c(=O)c2nc(CCS)[nH]c2n(C)c1=O
inactive: COLO 205 > 100 µM | SW-620 > 100 µM | HL-60 > 100 µM | IGROV-1 > 100 µM | UACC-62 > 100 µM | NCI-H23 > 100 µM | NCI-H226 > 100 µM | DU-145 > 100 µM | SF-539 74.8 µM | UO-31 > 100 µM | EKVX > 100 µM | Malme-3M > 100 µM | SNB-75 18.3 µM | M14 > 100 µM | RPMI-8226 > 100 µM | SK-MEL-5 > 100 µM | SK-MEL-28 > 100 µM | OVCAR-8 > 100 µM | U-251 > 100 µM | SR > 100 µM

Cc1cnc2c(c1)C(=O)N(c1ccc([N+](=O)[O-])cc1)S2(=O)=O
inactive: COLO 205 > 100 µM | SW-620 58.7 µM | HL-60 28.2 µM | IGROV-1 30.3 µM | UACC-62 75.5 µM | NCI-H23 > 100 µM | NCI-H226 19.9 µM | DU-145 > 100 µM | SF-539 64.6 µM | UO-31 > 100 µM | EKVX > 100 µM | Malme-3M 22.4 µM | SNB-75 61.1 µM | M14 > 100 µM | RPMI-8226 37.7 µM | SK-MEL-5 71.3 µM | SK-MEL-28 74 µM | OVCAR-8 > 100 µM | U-251 67.1 µM | SR 25.7 µM

COc1cc(Br)cc2nc(-c3cccs3)oc12
inactive: COLO 205 > 100 µM | SW-620 > 100 µM | HL-60 > 100 µM | IGROV-1 > 43.2 µM | UACC-62 > 100 µM | NCI-H23 > 68.1 µM | NCI-H226 > 100 µM | DU-145 > 100 µM | SF-539 75.9 µM | UO-31 > 54.7 µM | EKVX > 61.9 µM | Malme-3M > 100 µM | SNB-75 > 51.3 µM | M14 > 100 µM | RPMI-8226 > 100 µM | SK-MEL-5 74.1 µM | SK-MEL-28 > 100 µM | OVCAR-8 > 100 µM | U-251 42.1 µM | SR > 100 µM
